Data taken from patent US20250382344A1, “Soluble GLP1/GIP/NPY2 Receptor Triple Agonists” (Boehringer Ingelheim International GmH, priority 2024, published 2025).
Residue numbers refer to the chain shown, from its start. Where two headings read alike, the source gives them in different places. *1 amine or outer side, *2 acyl side, *3 side chain or, on linkers, in order; H or OH if unused. Where no end group is shown, it is not given here. Side-chain parts run from the residue outwards. [ ]: non-standard residue; d: D form. The star is where a group is joined. C20 diacid = O=C(O)CCCCCCCCCCCCCCCCCCC(=O)*; C18 diacid = O=C(O)CCCCCCCCCCCCCCCCC(=O)*; γGlu = O=C(O)[C@H](CCC(=O)[*:2])N[*:1]; εLys = N[C@@H](CCCCN[*:1])C(=O)[*:2]; Aib = CC(C)(N)C(=O)O

T1: hGIPR (Homo sapiens, UniProt P48546)
T1 construct: expressed in transfected cells; host or cells: CHO CRE-luciferase reporter cells
T1 sequence (P48546 22-466): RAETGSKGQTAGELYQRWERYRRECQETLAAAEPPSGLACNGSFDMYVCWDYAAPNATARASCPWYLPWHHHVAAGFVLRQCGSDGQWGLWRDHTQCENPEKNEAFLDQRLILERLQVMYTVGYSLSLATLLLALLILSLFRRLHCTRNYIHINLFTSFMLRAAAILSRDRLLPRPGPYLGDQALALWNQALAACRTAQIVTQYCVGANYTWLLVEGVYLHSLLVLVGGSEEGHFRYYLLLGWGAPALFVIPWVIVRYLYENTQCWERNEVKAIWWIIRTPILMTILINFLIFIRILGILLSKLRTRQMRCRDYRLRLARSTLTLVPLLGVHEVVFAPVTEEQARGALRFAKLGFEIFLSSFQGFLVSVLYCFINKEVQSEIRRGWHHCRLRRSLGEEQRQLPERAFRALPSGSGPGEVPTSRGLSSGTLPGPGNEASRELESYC

T2: human GIP receptor (human, UniProt P48546 22-466)
T2 sequence (looked up): T1 sequence (P48546 22-466)

B1: Compound 20 (peptide)
peptide: YXEGTFTSDLSIXLEKQAQXAFVRHLINKXTRQRY
modifications: Aib at 2, 13, 20, 30; Lys29 epsilon-amino acylated with C20DA-gGlu-gGlu-gGlu-gGlu-gGlu-gGlu-eLys; C-terminal amide
B2: Compound 80 (peptide)
peptide: B1 peptide with L10Y, I27L
modifications: Aib at 2, 13, 20, 30; Lys29 epsilon-amino acylated with C20DA-gGlu-gGlu-gGlu-gGlu-gGlu-gGlu-eLys; C-terminal amide
B3: Compound 24 (peptide)
peptide: B1 peptide with L10Y, Q17I
modifications: Aib at 2, 13, 20, 30; Lys29 epsilon-amino acylated with C18DA-gGlu-gGlu-gGlu-gGlu-gGlu-gGlu-eLys; C-terminal amide
B4: Compound 15 (peptide)
peptide: B1 peptide with L10F
modifications: Aib at 2, 13, 20, 30; Lys29 epsilon-amino acylated with C20DA-gGlu-gGlu-gGlu-gGlu-gGlu-gGlu-eLys; C-terminal amide
B5: Compound 71 (peptide)
peptide: B1 peptide with L10Y, K16E
modifications: Aib at 2, 13, 20, 30; Lys29 epsilon-amino acylated with C18DA-gGlu-gGlu-gGlu-gGlu-gGlu-gGlu-eLys; C-terminal amide
B6: Compound 53 (peptide)
peptide: B1 peptide with L10Y, V23I
modifications: Aib at 2, 20, 30; aMeL at 13; Lys29 epsilon-amino acylated with C20DA-gGlu-gGlu-gGlu-gGlu-gGlu-gGlu-eLys; C-terminal amide

Tests used:
hGLP1R = target: T3, hGLP1R (Homo sapiens, UniProt P43220); experiment: hGLP1R CreLuc assay in 0.5% and 100% plasma (HEK-293 CRE-luciferase reporter cells); type: cell-based; conditions: 0.5% human plasma, HEK-293 reporter cells, read-out: hGLP1R 0.5% hP
T3 construct: expressed in transfected cells; host or cells: HEK-293 CRE-luciferase reporter cells

hGIPR = target: T1, hGIPR; experiment: hGIPR CreLuc assay in 0.5% and 100% plasma (CHO CRE-luciferase reporter cells); type: cell-based
[1] = Solubility in 0.1 M phosphate buffer at pH 7; type: physicochemical; conditions: 0.1 M phosphate buffer at pH 7, 10 mg/mL final peptide concentration, shaking 2 hours at room temperature, peptides as TFA-salts, measured sample pH 6.5-7.0
human GIP receptor = target: T2, human GIP receptor; experiment: cell-based or functional assay
[2] = 0.5% human plasma, read-out: hGIPR 0.5% hP
[3] = 100% human plasma, read-out: hGIPR 100% hP

T3 sequence (P43220 24-463): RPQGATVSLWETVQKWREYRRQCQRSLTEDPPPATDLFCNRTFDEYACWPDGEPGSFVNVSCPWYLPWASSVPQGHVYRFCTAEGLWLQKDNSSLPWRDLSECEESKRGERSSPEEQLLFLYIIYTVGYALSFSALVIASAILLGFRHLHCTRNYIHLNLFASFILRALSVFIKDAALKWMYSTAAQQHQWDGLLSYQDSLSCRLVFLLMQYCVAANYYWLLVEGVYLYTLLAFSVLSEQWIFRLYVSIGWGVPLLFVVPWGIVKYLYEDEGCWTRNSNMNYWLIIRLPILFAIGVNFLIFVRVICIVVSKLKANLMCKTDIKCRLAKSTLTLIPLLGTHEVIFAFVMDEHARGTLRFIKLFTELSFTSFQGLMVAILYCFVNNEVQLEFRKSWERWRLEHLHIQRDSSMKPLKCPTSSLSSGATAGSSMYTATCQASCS

Molecule | EC50 (hGLP1R) | EC50 (hGIPR; [2]) | EC50, CreLuc reporter, 0.5% hP (human GIP receptor) | other results
CC[C@H](C)[C@H](NC(=O)[C@H](CC(C)C)NC(=O)[C@H](Cc1c[nH]cn1)NC(=O)[C@H](CCCNC(=N)N)NC(=O)[C@@H](NC(=O)[C@H](Cc1ccccc1)NC(=O)[C@H](C)NC(=O)C(C)(C)NC(=O)[C@H](CCC(N)=O)NC(=O)[C@H](C)NC(=O)[C@H](CCC(N)=O)NC(=O)[C@H](CCCCN)NC(=O)[C@H](CCC(=O)O)NC(=O)[C@H](CC(C)C)NC(=O)C(C)(C)NC(=O)[C@H](C)NC(=O)[C@H](CO)NC(=O)[C@H](Cc1ccc(O)cc1)NC(=O)[C@H](CC(=O)O)NC(=O)[C@H](CO)NC(=O)[C@@H](NC(=O)[C@H](Cc1ccccc1)NC(=O)[C@@H](NC(=O)CNC(=O)[C@H](CCC(=O)O)NC(=O)C(C)(C)NC(=O)[C@@H](N)Cc1ccc(O)cc1)[C@@H](C)O)[C@@H](C)O)C(C)C)C(=O)N[C@@H](CC(N)=O)C(=O)N[C@@H](CCCCNC(=O)[C@@H](N)CCCCNC(=O)CC[C@H](NC(=O)CC[C@H](NC(=O)CC[C@H](NC(=O)CC[C@H](NC(=O)CC[C@H](NC(=O)CC[C@H](NC(=O)CCCCCCCCCCCCCCCCC(=O)O)C(=O)O)C(=O)O)C(=O)O)C(=O)O)C(=O)O)C(=O)O)C(=O)NC(C)(C)C(=O)N[C@H](C(=O)N[C@@H](CCCNC(=N)N)C(=O)N[C@@H](CCC(N)=O)C(=O)N[C@@H](CCCNC(=N)N)C(=O)N[C@@H](Cc1ccc(O)cc1)C(N)=O)[C@@H](C)O [Compound 156, Y-Aib-E-G-T-F-T-S-D-Y-S-A-Aib-L-E-K-Q-A-Q-Aib-A-F-V-R-H-L-I-N-K(1,3)-Aib-T-R-Q-R-Y-NH2.C18DA-gGlu-gGlu-gGlu-gGlu-gGlu-gGlu-eLys(1,2)] | 7 nM | 0.8 nM | – | solubility ([1]; read-out: Solubility): 5.1 mg/mL
CC[C@H](C)[C@H](NC(=O)[C@H](CC(C)C)NC(=O)[C@H](Cc1c[nH]cn1)NC(=O)[C@H](CCCNC(=N)N)NC(=O)[C@@H](NC(=O)[C@H](Cc1ccccc1)NC(=O)[C@H](C)NC(=O)C(C)(C)NC(=O)[C@H](CCC(N)=O)NC(=O)[C@H](C)NC(=O)[C@H](CCC(N)=O)NC(=O)[C@H](CCCCN)NC(=O)[C@H](CCC(=O)O)NC(=O)[C@H](CC(C)C)NC(=O)C(C)(C)NC(=O)[C@@H](NC(=O)[C@H](CO)NC(=O)[C@H](Cc1ccc(O)cc1)NC(=O)[C@H](CC(=O)O)NC(=O)[C@H](CO)NC(=O)[C@@H](NC(=O)[C@H](Cc1ccccc1)NC(=O)[C@@H](NC(=O)CNC(=O)[C@H](CCC(=O)O)NC(=O)C(C)(C)NC(=O)[C@@H](N)Cc1ccc(O)cc1)[C@@H](C)O)[C@@H](C)O)[C@@H](C)CC)C(C)C)C(=O)N[C@@H](CC(N)=O)C(=O)N[C@@H](CCCCNC(=O)CC[C@H](NC(=O)CC[C@H](NC(=O)CC[C@H](NC(=O)CC[C@H](NC(=O)CC[C@H](NC(=O)CCCCCCCCCCCCCCCCC(=O)O)C(=O)O)C(=O)O)C(=O)O)C(=O)O)C(=O)O)C(=O)N[C@@H](CC(C)C)C(=O)N[C@H](C(=O)N[C@@H](CCCNC(=N)N)C(=O)N[C@@H](CCC(N)=O)C(=O)N[C@@H](CCCNC(=N)N)C(=O)N[C@@H](Cc1ccc(O)cc1)C(N)=O)[C@@H](C)O [Compound 158, Y-Aib-E-G-T-F-T-S-D-Y-S-I-Aib-L-E-K-Q-A-Q-Aib-A-F-V-R-H-L-I-N-K(1,3)-L-T-R-Q-R-Y-NH2.C18DA-gGlu-gGlu-gGlu-gGlu-gGlu(1,2)] | 0.6 nM | 0.5 nM | – | EC50 (hGIPR; [3]): 14.4 nM; solubility at 2 h [1]: 3.2 mg/mL
CC[C@H](C)[C@H](NC(=O)[C@H](CO)NC(=O)[C@H](Cc1ccc(O)cc1)NC(=O)[C@H](CC(=O)O)NC(=O)[C@H](CO)NC(=O)[C@@H](NC(=O)[C@H](Cc1ccccc1)NC(=O)[C@@H](NC(=O)CNC(=O)[C@H](CCC(=O)O)NC(=O)C(C)(C)NC(=O)[C@@H](N)Cc1ccc(O)cc1)[C@@H](C)O)[C@@H](C)O)C(=O)N[C@@H](CCC(=O)O)C(=O)N[C@@H](CC(C)C)C(=O)N[C@@H](CCC(=O)O)C(=O)N[C@@H](CCCCN)C(=O)N[C@@H](CCC(N)=O)C(=O)N[C@@H](C)C(=O)N[C@@H](CCC(N)=O)C(=O)NC(C)(C)C(=O)N[C@@H](C)C(=O)N[C@@H](Cc1ccccc1)C(=O)N[C@H](C(=O)N[C@@H](CCCNC(=N)N)C(=O)N[C@@H](Cc1c[nH]cn1)C(=O)N[C@@H](CC(C)C)C(=O)N[C@H](C(=O)N[C@@H](CC(N)=O)C(=O)N[C@@H](CCCCNC(=O)[C@@H](N)CCCCNC(=O)CC[C@H](NC(=O)CC[C@H](NC(=O)CC[C@H](NC(=O)CC[C@H](NC(=O)CC[C@H](NC(=O)CC[C@H](NC(=O)CCCCCCCCCCCCCCCCC(=O)O)C(=O)O)C(=O)O)C(=O)O)C(=O)O)C(=O)O)C(=O)O)C(=O)NC(C)(C)C(=O)N[C@H](C(=O)N[C@@H](CCCNC(=N)N)C(=O)N[C@@H](CCC(N)=O)C(=O)N[C@@H](CCCNC(=N)N)C(=O)N[C@@H](Cc1ccc(O)cc1)C(N)=O)[C@@H](C)O)[C@@H](C)CC)C(C)C [Compound 160, Y-Aib-E-G-T-F-T-S-D-Y-S-I-E-L-E-K-Q-A-Q-Aib-A-F-V-R-H-L-I-N-K(1,3)-Aib-T-R-Q-R-Y-NH2.C18DA-gGlu-gGlu-gGlu-gGlu-gGlu-gGlu-eLys(1,2)] | 7.1 nM | 0.4 nM | – | solubility at 2 h [1]: 5.2 mg/mL
CC[C@H](C)[C@H](NC(=O)[C@H](CC(C)C)NC(=O)[C@H](Cc1c[nH]cn1)NC(=O)[C@H](CCCNC(=N)N)NC(=O)[C@@H](NC(=O)[C@H](Cc1ccccc1)NC(=O)[C@H](CCC(=O)O)NC(=O)C(C)(C)NC(=O)[C@H](CCC(N)=O)NC(=O)[C@H](C)NC(=O)[C@H](CCC(N)=O)NC(=O)[C@H](CCCCN)NC(=O)[C@H](CCC(=O)O)NC(=O)[C@H](CC(C)C)NC(=O)C(C)(C)NC(=O)[C@@H](NC(=O)[C@H](CO)NC(=O)[C@H](Cc1ccc(O)cc1)NC(=O)[C@H](CC(=O)O)NC(=O)[C@H](CO)NC(=O)[C@@H](NC(=O)[C@H](Cc1ccccc1)NC(=O)[C@@H](NC(=O)CNC(=O)[C@H](CCC(=O)O)NC(=O)C(C)(C)NC(=O)[C@@H](N)Cc1ccc(O)cc1)[C@@H](C)O)[C@@H](C)O)[C@@H](C)CC)C(C)C)C(=O)N[C@@H](CC(N)=O)C(=O)N[C@@H](CCCCNC(=O)[C@@H](N)CCCCNC(=O)CC[C@H](NC(=O)CC[C@H](NC(=O)CC[C@H](NC(=O)CC[C@H](NC(=O)CCCCCCCCCCCCCCCCC(=O)O)C(=O)O)C(=O)O)C(=O)O)C(=O)O)C(=O)NC(C)(C)C(=O)N[C@H](C(=O)N[C@@H](CCCNC(=N)N)C(=O)N[C@@H](CCC(N)=O)C(=O)N[C@@H](CCCNC(=N)N)C(=O)N[C@@H](Cc1ccc(O)cc1)C(N)=O)[C@@H](C)O [Compound 163, Y-Aib-E-G-T-F-T-S-D-Y-S-I-Aib-L-E-K-Q-A-Q-Aib-E-F-V-R-H-L-I-N-K(1,3)-Aib-T-R-Q-R-Y-NH2.C18DA-gGlu-gGlu-gGlu-gGlu-eLys(1,2)] | 0.1 nM | 0.2 nM | – | EC50 (hGIPR; [3]): 5.9 nM; solubility at 2 h [1]: 5 mg/mL
Y[Aib]EGTFTSDYSILLEKQAQ[Aib]AFVRHLINK([γGlu-γGlu-γGlu-γGlu-γGlu-γGlu-C20 diacid])[Aib]TRQRY-NH2 [Compound 57] | – | – | 0.3 nM | –
Y[Aib]EGTFTSDYSI[Aib]LEKQAQ[Aib]AFVRHLINK([εLys-εLys-γGlu-γGlu-γGlu-γGlu-γGlu-γGlu-C18 diacid])[Aib]TRQRY-NH2 [Compound 11] | – | – | – | EC50, CreLuc reporter, 100% hP (human GIP receptor): 8 nM
B1 | – | – | 0.4 nM | –
B2 | – | – | 1.7 nM | –
B3 | – | – | 1 nM | EC50, CreLuc reporter, 100% hP (human GIP receptor): 26.2 nM
B4 | – | – | 0.6 nM | –
B5 | – | – | 0.3 nM | –
B6 | – | – | 0.1 nM | EC50, CreLuc reporter, 100% hP (human GIP receptor): 1.7 nM
Y[Aib]EGTFTSDYSI[Aib]LEKQAQ[Aib]AFVRHLINK([εLys-γGlu-γGlu-γGlu-γGlu-γGlu-γGlu-γGlu-C18 diacid])ITRQRY-NH2 [Compound 18] | – | – | 0.2 nM | –
